According to US9681661B2, “Method of controlling parasitic weeds with mixtures comprising herbicidal acetolactate synthase inhibitors and plant growth regulators” (BASF Agrochemical Products B.V., priority 2011, dated 2017):

Experiments:
[1] = tested on: sunflower; experiment: Field experiment: yield of sunflower seeds under Orobanche infestation; type: in vivo, Helianthus annuus L.; conditions: Imazamox 30 g/ha at BBCH 14-15 and 20 g/ha at BBCH 16-18; Prohexadione-Ca 60 g/ha at BBCH 14-15 and 40 g/ha at BBCH 16-18; untreated 1127
[2] = tested on: Orobanche sp. (ORASS); experiment: Field experiment: delay of weed emergence and number of Orobanche plants per host plant in imazamox tolerant sunflower; type: in vivo; conditions: Imazamox 30 g/ha at BBCH 14-15 and 20 g/ha at BBCH 16-18, Prohexadione-Ca 60 g/ha at BBCH 14-15 and 40 g/ha at BBCH 16-18; for first visible emergence of orobanche (DAT): untreated 22
[3] = tested on: Orobanche cumana (ORACE); experiment: Field experiment: herbicidal activity against natural Orobanche cumana infestation in sunflower, postemergence treatments; type: in vivo; conditions: Imazamox 50 and/or Prohexadione-Ca 100 g a.i./ha total
Excerpt: Host test plants were, uniform and homogeneous with respect to age, cultivar, and row spacing and distance in the row. Plot size 2.8 m×10 m-4 rows per plot. Test area was kept weed free of conventional weeds (monocotyledon and dicotyledonous weeds) by hand hoeing. Natural infestations of parasitic weeds were present in the soil of the test areas. Postemergence treatments where performed with up to 4 application timings regarding the growth stage of the host plant. Application timings are specified with M, N, O, and P and related to the following growth stages of the host test plants according to the BBCH-scale” Lancashire, […] Boom, E. Weber and A. Witzenberger, 1991: A uniform decimal code for growth stages of crops and weeds. Ann. appl. […] Sequential application were performed with the solo active components and compared to the respective mixture. The respectively stated components A) and B) were used as commercially available formulations and, with addition of a solvent system, introduced into the spray medium used for applying the active composition. In the examples, the spray medium used was water. […] The test period extended over 1 to 4 month. During this time, the plants were tended, and their response to the individual treatments was evaluated. Evaluation was carried out using a scale from 0 to 100 to express activity (in %). 100% means no emergence of the parasitic plants, or complete destruction of at least the above-ground parts, and 0% means no damage or normal course of growth of the parasitic plants. Good herbicidal activity is given at values of at least 70, and very good herbicidal activity is given at values of at least 85. In the examples below, using the method of S. R. Colby (1967) “Calculating synergistic and antagonistic responses of herbicide combinations”, Weeds 15, p. 22ff., the value E, which is expected if the activity of the individual active compounds is only additive, was calculated. E=X+Y-(X·Y/100) • where • X=percent activity using active component A) at an application rate a; • Y=percent activity using active component B) at an application rate b; • E=expected activity (in %) by A)+B) at application rates a+b. If the value found experimentally is higher than the value E calculated according to Colby, a synergistic effect is present. The herbicidal activity of the tested compositions against Orobanche cumana (ORACE) according to the invention is compiled in table V.

[4] = tested on: Orobanche sp. (ORASS); experiment: Impact of host infestation with Orobanche, tank mixture versus single application, score 1 to 10; type: in vivo; conditions: 21 days after treatment; application at BBCH 16-18; Imazamox 15 g/ha, Prohexadione-Ca 75 g/ha; value 1 (no infestation) to 10 (high negative impact)
Excerpt: Seeds of sunflower (Helianthus annuus L.) where sown as host test plants using small scale field experiment equipment. Host test plants were, uniform and homogeneous with respect to age, cultivar, and row spacing and distance in the row. Plot size 2.8 m×10 m—4 rows per plot. Test area was kept weed free of conventional weeds (monocotyledon and dicotyledonous weeds) by hand hoeing. Natural infestations of parasitic weeds were present in the soil of the test areas. Sequential application were performed with the solo active components and compared to the respective mixture. The respectively stated components A) and B) were used as commercially available formulations and, with addition of a solvent system, introduced into the spray medium used for applying the active composition. In the examples, the spray medium used was water.

[5] = tested on: Orobanche cumana; conditions: reported in EP 0123001 (A1) / Fan et al., Weed Research 2007; cited from earlier work
[6] = timing M, N, O, P (BBCH growth stage), scale 0 to 100, 100 = no emergence or complete destruction
[7] = timing M, O (BBCH growth stage), scale 0 to 100
[8] = timing N, P (BBCH growth stage), scale 0 to 100

Compound	yield of sunflower seeds [1]	no. of orobanche plants per host plant [2]	first visible emergence of orobanche (DAT) [2]	activity in % [3, 6]	activity in % [3, 7]	activity in % [3, 8]	impact of host infestation with ORASS [4]	sunflower resistance against infection with Orobanche cumana [5]
COCc1cnc(C2=NC(C)(C(C)C)C(=O)N2)c(C(=O)O)c1 (stereo not drawn) [Imazamox, imazamox]	2055 kg/ha	15	81 DAT	69%	67%	68%	4	
prohexadione-calcium	961 kg/ha	55	63 DAT	2%	5%	8%	6	induces sunflower resistance
